Reference: article PMC11926880, “Procognitive Potential of Neuroprotective Triazine 5-HT6 Receptor Antagonists Tested on Chronic Activity In Vivo in Rats: Computer-Aided Insight into the Role of Chalcogen-Differences on the Pharmacological Profile” (ACS Chemical Neuroscience, 2025)
Where two headings read alike, the source gives them in different places.

Experiment: pharmacokinetics in serum after single i.p. administration
Assay type: in vivo, rat
Details: for Vd/F: read-out: Vz/F; for half-life: read-out: t1/2λz
Protocol: Standard laboratory food (LSM-B) and filtered water as well as environment enrichment were freely available. Animals were randomly divided into treatment groups using a computer-based random order generator. All of the experiments were performed by two observers unaware of the treatment applied between 9:00 and 14:00 on separate groups of animals.
Rats were injected with the investigated compounds once (in pharmacokinetic studies) and for 21 days (in behavioral studies), and afterward, behavioral tests were conducted and tissue collection was done, as required. For pharmacokinetic studies, animals were fasted prior to dosing by withholding food but not water overnight. After dosing, the food was withheld for an additional 8 h. All animals were used only once. Animals were handled every day and weighed every other day in the chronic part of the experiment. Procedures involving animals and their care were conducted in accordance with current European Community and Polish legislations on animal experimentation. Additionally, all efforts were made to minimize animals’ suffering and to use only the number of animals necessary to produce reliable scientific data. […] The research program complies with the commonly accepted ‘3Rs’ (replacement and reduction of animals, refinement of experimental conditions, and procedures to minimize the harm to animals).
Moreover, five tissues (i.e., brain, heart, lungs, kidneys, and liver) were harvested and rinsed with cold saline. Blood was allowed to clot at room temperature for 15–20 min and then centrifuged (3000 rpm for 10 min). The obtained serum and tissues were stored at −80 °C until analysis.
Peak areas were integrated automatically using an EZChrome Elite v. 3.3.2 software (VWR, Darmstadt, Germany) chromatographic workstation.
The mobile phase consisting of methanol −10 mM potassium dihydrogen phosphate buffer (pH 4.6) and acetonitrile (51:40:9, v/v/v) was passed under vacuum through a 0.22 μm filter membrane.
Before analysis, tissue samples were thawed, weighed (200–250 mg), and placed in 5 mL plastic tubes with four volumes (w/v) of PBS (pH 7.4) and homogenized individually using a MICCRA D-1 homogenizer (ART Prozess & Labortechnik GmbH & Co., Germany). Serum (500 μL) or homogenate samples (500 μL) were mixed with an IS solution ((RS)-4-(4-methylpiperazin-1-yl)-6-(1-phenoxypropyl)-1,3,5-triazin-2-amine), 50 ng/mL in methanol. The samples were alkalized with 50 μL of 4 M sodium hydroxide solution, vortex-mixed, and extracted with 1 mL of ethyl acetate/hexane (30/70, v/v) mixture on a shaker (VXR Vibrax, IKA, Germany) for 20 min. After centrifugation (Eppendorf, Mini Spin Plus, Bionovo, Poland), the organic layers were transferred into new Eppendorf tubes containing 100 μL of methanol and 0.1 M sulfuric acid (10/90, v/v) mixture. Then, the samples were shaken and centrifuged again. Finally, 60–90 μL of each acidic layer was injected into the HPLC system.
The method was validated according to the procedures and acceptance criteria recommended for bioanalytical method validation for pharmacokinetic studies.[45]
The serum concentration–time data were analyzed by a noncompartmental method using the WinNonlin 8.2 nonlinear least-squares regression program (Pharsight Corporation, a Certara Company, Princeton, NJ, USA) to obtain pharmacokinetic parameters. […] The area under the serum concentration–time curve from time zero to time t (AUC0–t), where t is the time of the last measurable sample, was calculated according to the linear trapezoidal rule. The AUC from time zero to infinity (AUC0–∞) was estimated as AUC0–t + Ct/λz, where Ct was the serum concentration of the last measurable sample. The clearance (CL/F) was calculated as D/AUC0–∞, and the volume of distribution based on the terminal phase (Vz/F) was estimated as D/(λz·AUC0–∞), where F is the bioavailability of intraperitoneal administration.

[1] = 1.0 mg/kg i.p., single, 1 mg/kg
[2] = male, Wistar, rat, ip, 0.3 mg/kg i.p., single
[3] = male, Wistar, rat, ip, 0.3 mg/kg, 0.3 mg/kg i.p., single
[4] = male, Wistar, rat, ip, 1.0 mg/kg i.p., single
[5] = male, Wistar, rat, ip, 1 mg/kg, 1.0 mg/kg i.p., single

## CN1CCN(c2nc(N)nc(C(C)(C)Sc3ccc4ccccc4c3)n2)CC1 [WA-22, 4-(4-methylpiperazin-1-yl)-6-(2-(naphthalen-2-ylthio)propan-2-yl)-1,3,5-triazin-2-amine]
  Cmax after 1.0 mg/kg i.p. in relation to 0.3 mg/kg i.p.: 3.8 fold
0.3 mg/kg i.p., single, 0.3 mg/kg
  Cmax: 18.65 ± 1.87 ng/mL
[1]
  Cmax: 71.05 ± 26.52 ng/mL
  Vz/F: 75.43 ± 28.17 L/kg
  t1/2λz: 2.8115 ± 0.7785 h
[2]
  AUC(0-t): 14 ng·h/mL
  CL/F: 255 mL/min/kg
  MRT: 1.61 h
  Tmax: 5 min
male, Wistar, rat, ip, 0.3 mg/kg, 0.3 mg/kg i.p., single, read-out: Cmax
  Cmax: 18.7 ng/mL
[3]
  Vd/F: 28.1 ± 6.41 L/kg
  half-life: 1.29 ± 0.349 h
male, Wistar, rat, ip, 1 mg/kg i.p., single
  AUC(0-inf): 55.9 ng·h/mL
[4]
  AUC(0-t): 42.3 ng·h/mL
  CL/F: 313 mL/min/kg
  MRT: 2.7 h
  Tmax: 5 min
male, Wistar, rat, ip, 1 mg/kg, 1.0 mg/kg i.p., single, read-out: Cmax
  Cmax: 71.1 ng/mL
[5]
  Vd/F: 75.4 L/kg
  half-life: 2.81 h
